Data taken from patent US20160120863A1, “SLC2A TRANSPORTER INHIBITORS” (IOMET PHARMA LTD., priority 2013, published 2016).

Target: T1, human GLUT1 (Homo sapiens, UniProt P11166)
T1 construct: expressed in transfected cells
T1 sequence (P11166 1-492): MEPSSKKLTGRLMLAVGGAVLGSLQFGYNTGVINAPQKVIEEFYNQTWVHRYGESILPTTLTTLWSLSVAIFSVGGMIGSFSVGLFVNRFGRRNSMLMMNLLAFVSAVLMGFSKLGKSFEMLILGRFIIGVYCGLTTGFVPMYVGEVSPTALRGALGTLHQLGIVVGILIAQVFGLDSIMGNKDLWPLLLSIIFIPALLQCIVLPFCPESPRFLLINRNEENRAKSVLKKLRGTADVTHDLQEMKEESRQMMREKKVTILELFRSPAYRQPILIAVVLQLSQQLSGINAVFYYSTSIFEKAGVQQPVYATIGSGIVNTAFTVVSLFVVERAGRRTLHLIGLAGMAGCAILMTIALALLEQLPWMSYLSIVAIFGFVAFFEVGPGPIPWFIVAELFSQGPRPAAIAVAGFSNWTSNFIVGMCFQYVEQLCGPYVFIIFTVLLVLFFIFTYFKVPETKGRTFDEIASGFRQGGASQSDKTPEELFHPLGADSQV
Test: [3H]-deoxy-D-glucose uptake assay, GLUT1
Assay type: cell-based
Details: [3H]-deoxy-D-glucose uptake in HEK293 cells stably expressing human GLUT1
Description: HEK293 cells were engineered to stably express either human GLUT1, GLUT2, GLUt3 or GLUT4 by transfection with the pReceiver-Lv105 plasmid, containing either hGLUT1, hGLUT2, hGLUT3, or hGLUT4 gene constructs with lipofectamine 2000, hGLUT1- hGLUT2- hGLUT3- or hGLUT4-overexpressing polyclonal populations were isolated under purinomycin selective pressure (1 μg/ml) and maintained in Dulbecco's modified Eagle's medium supplemented with 1 μg/ml purinomycin+10% foetal bovine serum (FBS).
60,000 cells per well were seeded overnight into poly-D-lysine coasted 96-well plates. […] 90 μl of test compounds were added in glucose-free uptake buffer and cells were incubated at 37° C. for 30 min.
Cells were then washed twice with ice-cold PBS and 100 μl of Microscint-20 was added per well. Glucose uptake was quantified with a scintillation counter. The half maximal inhibitory concentration (IC50) (a measure of the effectiveness of the test compound in inhibiting glucose uptake) was determined.

In the case of `O=C(COCc1ccccc1)N1CCN(Cc2c(-c3ccc(Cl)cc3)nc3ccc(-c4ccccc4)cn23)CC1` [Compound 18], the “GLUT1 pIC50” value is reported as “+++ (pIC50 ≧ 6.00)”.

In the case of `O=C(C1CCCC1)N1CCN(Cc2c(-c3ccc([N+](=O)[O-])cc3)nc3ccc(-c4ccccc4)cn23)CC1` [Compound 24], the “GLUT1 pIC50” value is reported as “+++ (pIC50 ≧ 6.00)”.

In the case of `O=C(O)CN1CCN(Cc2c(-c3ccc(Cl)cc3)nc3ccc(-c4ccccc4)cn23)CC1` [Compound 223], the “GLUT1 pIC50” value is reported as “+− (pIC50 < 4.00)”.

In the case of `COc1cccc(-c2nc3ccc(-c4ccccc4)cn3c2CN2CCN(C(=O)C(C)C)CC2)c1` [Compound 54], the “GLUT1 pIC50” value is reported as “++ (pIC50 5.00-5.99)”.

`Clc1ccc(-c2nc3ccc(-c4ncon4)cn3c2CN2CCOCC2)cc1` [Compound 172] was tested, and the “GLUT1 pIC50” value was “++ (pIC50 5.00-5.99)”.

With `Cc1ccccc1-c1ccc2nc(-c3ccc(Cl)cc3)c(CN3CCOCC3)n2c1` [Compound 115] the “GLUT1 pIC50” value was “+++ (pIC50 ≧ 6.00)”.

`CC(C)(C)OC(=O)N1CCN(C(=O)c2c(-c3ccc(Cl)cc3)nc3ccc(-c4ccccc4)cn23)CC1` [Compound 290] was tested, and the “GLUT1 pIC50” value was “+− (pIC50 < 4.00)”.

`COc1cccc(-c2nc3ccc(C4CC4)cn3c2CN2CCN(C(=O)C3CCC3)CC2)c1` [Compound 207] was tested, and the “GLUT1 pIC50” value was “+++ (pIC50 ≧ 6.00)”.

`Clc1ccc(-c2nc3cnc(-c4ccccc4)cn3c2CN2CCOCC2)cc1` [Compound 75] was tested, and the “GLUT1 pIC50” value was “+++ (pIC50 ≧ 6.00)”.

With `Cc1cccc(C)c1NC(=O)N1CCN(Cc2c(-c3ccc(Cl)cc3)nc3ccc(-c4ccccc4)cn23)CC1` [Compound 19] the “GLUT1 pIC50” value was “+++ (pIC50 ≧ 6.00)”.

`Clc1ccc(-c2nc3ccc(C4CCOCC4)cn3c2CN2CCOCC2)cc1` [Compound 237] was tested, and the “GLUT1 pIC50” value was “++ (pIC50 5.00-5.99)”.

In the case of `COc1cccc(-c2nc3ccc(-c4ccccc4)cn3c2CN2CCN(C(=O)c3ccccc3F)CC2)c1` [Compound 71], the “GLUT1 pIC50” value is reported as “+++ (pIC50 ≧ 6.00)”.

For `COc1cccc(-c2ccc3nc(-c4ccc(Cl)cc4)c(CN4CCOCC4)n3c2)c1` [Compound 84], the “GLUT1 pIC50” value was “++ (pIC50 5.00-5.99)”.

With `CCNC(=O)c1cccc2nc(-c3ccc(Cl)cc3)c(CN3CCOCC3)n12` [Compound 121] the “GLUT1 pIC50” value was “+− (pIC50 < 4.00)”.

With `CS(=O)(=O)Nc1ccc2nc(-c3ccc(Cl)cc3)c(CN3CCN(C(=O)C4COC4)CC3)n2c1` [Compound 286] the “GLUT1 pIC50” value was “+++ (pIC50 ≧ 6.00)”.

`O=C(C1CCCC1)N1CCN(Cc2c(-c3cccc([N+](=O)[O-])c3)nc3ccc(-c4ccccc4)cn23)CC1` [Compound 66] was tested, and the “GLUT1 pIC50” value was “++ (pIC50 5.00-5.99)”.

In the case of `Cc1cc2nc(-c3ccc(Cl)cc3)c(CN3CCOCC3)n2cc1-c1ccccc1` [Compound 176], the “GLUT1 pIC50” value is reported as “++ (pIC50 5.00-5.99)”.

For `O=C(O)C1CCN(Cc2c(-c3ccc(Cl)cc3)nc3ccc(-c4ccccc4)cn23)CC1` [Compound 182], the “GLUT1 pIC50” value was “+− (pIC50 < 4.00)”.

For `Clc1ccc(-c2nc3ncc(-c4ccccc4)cn3c2CN2CCOCC2)cc1` [Compound 77], the “GLUT1 pIC50” value was “+− (pIC50 < 4.00)”.

`COc1cccc(-c2nc3ccc(-c4ccccc4)cn3c2CN2CCN(C(=O)c3ccc(F)cc3)CC2)c1` [Compound 49] was tested, and the “GLUT1 pIC50” value was “+++ (pIC50 ≧ 6.00)”.

In the case of `NC1CCN(Cc2c(-c3ccc(Cl)cc3)nc3ccc(-c4ccccc4)cn23)CC1` [Compound 197], the “GLUT1 pIC50” value is reported as “+ (pIC50 4.00-4.99)”.

With `COc1cccc(-c2nc3ccc(-c4ccccc4)cn3c2CN2CCN(C(=O)C3CCC3)CC2)c1` [Compound 16] the “GLUT1 pIC50” value was “++ (pIC50 5.00-5.99)”.

With `COc1ccccc1-c1ccc2nc(-c3ccc(Cl)cc3)c(CN3CCOCC3)n2c1` [Compound 85] the “GLUT1 pIC50” value was “++ (pIC50 5.00-5.99)”.

For `CCS(=O)(=O)N1CCN(Cc2c(-c3cccc([N+](=O)[O-])c3)nc3ccc(-c4ccccc4)cn23)CC1` [Compound 9], the “GLUT1 pIC50” value was “++ (pIC50 5.00-5.99)”.

With `CCC(=O)N1CCN(Cc2c(-c3ccc(Cl)cc3)nc3ccc(-c4ccccc4C#N)cn23)CC1` [Compound 219] the “GLUT1 pIC50” value was “+++ (pIC50 ≧ 6.00)”.

`O=C(c1ccccc1Cl)N1CCN(Cc2c(-c3ccc(Cl)cc3)nc3ccc(-c4ccccc4)cn23)CC1` [Compound 64] was tested, and the “GLUT1 pIC50” value was “+ (pIC50 4.00-4.99)”.

In the case of `Clc1ccc(-c2nc3ccc(C4CCCC4)cn3c2CN2CCOCC2)cc1` [Compound 240], the “GLUT1 pIC50” value is reported as “++ (pIC50 5.00-5.99)”.

With `O=C(c1ccc(F)cc1)N1CCN(Cc2c(-c3ccc(Cl)cc3)nc3ccc(-c4ccccc4)cn23)CC1` [Compound 53] the “GLUT1 pIC50” value was “+++ (pIC50 ≧ 6.00)”.

For `NC(=O)CN1CCN(Cc2c(-c3ccc(Cl)cc3)nc3ccc(-c4ccccc4)cn23)CC1` [Compound 174], the “GLUT1 pIC50” value was “++ (pIC50 5.00-5.99)”.

`CS(=O)(=O)Nc1ccc2nc(-c3ccc(Cl)cc3)c(CN3CCN(C(=O)c4cscn4)CC3)n2c1` [Compound 279] was tested, and the “GLUT1 pIC50” value was “+++ (pIC50 ≧ 6.00)”.

In the case of `Cc1ccc2nc(-c3ccccc3)c(CN3CCN(c4ccccc4F)CC3)n2c1` [Compound 7], the “GLUT1 pIC50” value is reported as “+ (pIC50 4.00-4.99)”.

For `O=C(c1ccncc1)N1CCN(Cc2c(-c3ccc(Cl)cc3)nc3ccc(-c4c(F)cccc4F)cn23)CC1` [Compound 235], the “GLUT1 pIC50” value was “+++ (pIC50 ≧ 6.00)”.

For `FC(F)(F)Oc1ccccc1-c1ccc2nc(-c3ccc(Cl)cc3)c(CN3CCOCC3)n2c1` [Compound 153], the “GLUT1 pIC50” value was “+− (pIC50 < 4.00)”.

`O=C(c1ccnnc1)N1CCN(Cc2c(-c3ccc(Cl)cc3)nc3cnc(C4CC4)cn23)CC1` [Compound 268] was tested, and the “GLUT1 pIC50” value was “+++ (pIC50 ≧ 6.00)”.

`N#Cc1cccc(-c2nc3ccc(-c4ccccc4)cn3c2CN2CCOCC2)c1` [Compound 100] was tested, and the “GLUT1 pIC50” value was “+ (pIC50 4.00-4.99)”.

With `Clc1ccc(-c2nc3ccc(-c4ncccn4)cn3c2CN2CCOCC2)cc1` [Compound 241] the “GLUT1 pIC50” value was “++ (pIC50 5.00-5.99)”.

In the case of `COc1cccc(-c2nc3ccc(-c4ccccc4C#N)cn3c2CN2CCN(C(=O)C3CCC3)CC2)c1` [Compound 191], the “GLUT1 pIC50” value is reported as “+++ (pIC50 ≧ 6.00)”.

For `O=C(c1cncs1)N1CCN(Cc2c(-c3ccc(Cl)cc3)nc3ccc(-c4ccccc4)cn23)CC1` [Compound 184], the “GLUT1 pIC50” value was “+++ (pIC50 ≧ 6.00)”.

For `N#Cc1ccccc1-c1ccc2nc(-c3ccc(Cl)cc3)c(CN3CCN(C(=O)C4CCC4)CC3)n2c1` [Compound 213], the “GLUT1 pIC50” value was “+++ (pIC50 ≧ 6.00)”.

For `N#Cc1ccccc1-c1ccc2nc(-c3ccc(Cl)cc3)c(CN3CCNC(=O)C3)n2c1` [Compound 239], the “GLUT1 pIC50” value was “+++ (pIC50 ≧ 6.00)”.

In the case of `Clc1ccc(-c2nc3ccc(Cl)cn3c2CN2CCSCC2)cc1` [Compound 4], the “GLUT1 pIC50” value is reported as “+ (pIC50 4.00-4.99)”.

In the case of `CC(C)(C)OC(=O)N1CCN(Cc2c(-c3ccc(Cl)cc3)nc3ccc(-c4ccccc4)cn23)CC1` [Compound 88], the “GLUT1 pIC50” value is reported as “+− (pIC50 < 4.00)”.

`CC(=O)N1CCN(Cc2c(-c3cccc([N+](=O)[O-])c3)nc3ccc(-c4ccccc4)cn23)CC1` [Compound 59] was tested, and the “GLUT1 pIC50” value was “++ (pIC50 5.00-5.99)”.

For `CC(C)CC(=O)N1CCN(Cc2c(-c3cccc([N+](=O)[O-])c3)nc3ccc(-c4ccccc4)cn23)CC1` [Compound 60], the “GLUT1 pIC50” value was “+ (pIC50 4.00-4.99)”.

In the case of `O=C(C1CCOCC1)N1CCN(Cc2c(-c3ccc(Cl)cc3)nc3cnc(C4CC4)cn23)CC1` [Compound 256], the “GLUT1 pIC50” value is reported as “+++ (pIC50 ≧ 6.00)”.

In the case of `O=C(c1cnco1)N1CCN(Cc2c(-c3ccc(Cl)cc3)nc3ccc(-c4ccccc4)cn23)CC1` [Compound 233], the “GLUT1 pIC50” value is reported as “+++ (pIC50 ≧ 6.00)”.

In the case of `COc1cccc(-c2nc3ccc(-c4ccccc4)cn3c2CN2CCN(C(=O)c3ccco3)CC2)c1` [Compound 51], the “GLUT1 pIC50” value is reported as “++ (pIC50 5.00-5.99)”.

For `O=[N+]([O-])c1ccc(-c2nc3ccc(-c4ccccc4)cn3c2CN2CCNCC2)cc1` [Compound 12], the “GLUT1 pIC50” value was “+ (pIC50 4.00-4.99)”.

In the case of `O=C(c1ccco1)N1CCN(Cc2c(-c3cccc([N+](=O)[O-])c3)nc3ccc(-c4ccccc4)cn23)CC1` [Compound 15], the “GLUT1 pIC50” value is reported as “++ (pIC50 5.00-5.99)”.

For `O=C(c1cccc(Cl)c1)N1CCN(Cc2c(-c3ccc(Cl)cc3)nc3ccc(-c4ccccc4)cn23)CC1` [Compound 185], the “GLUT1 pIC50” value was “++ (pIC50 5.00-5.99)”.

For `COCC(=O)N1CCN(Cc2c(-c3ccc(Cl)cc3)nc3ccc(-c4ccccc4C#N)cn23)CC1` [Compound 218], the “GLUT1 pIC50” value was “+++ (pIC50 ≧ 6.00)”.

In the case of `O=C1CN(Cc2c(-c3ccc(Cl)cc3)nc3ccc(-c4ccccc4)cn23)CCN1Cc1ccccc1` [Compound 134], the “GLUT1 pIC50” value is reported as “++ (pIC50 5.00-5.99)”.

With `COc1cccc(-c2nc3ccc(-c4ccccc4C(N)=O)cn3c2CN2CCN(C(=O)C3CCC3)CC2)c1` [Compound 192] the “GLUT1 pIC50” value was “++ (pIC50 5.00-5.99)”.

`c1ccc(-c2ccc3nc(C4CCCCC4)c(CN4CCOCC4)n3c2)cc1` [Compound 173] was tested, and the “GLUT1 pIC50” value was “++ (pIC50 5.00-5.99)”.

`O=C(c1cccc([N+](=O)[O-])c1)N1CCN(Cc2c(-c3ccc(Cl)cc3)nc3ccc(-c4ccccc4)cn23)CC1` [Compound 21] was tested, and the “GLUT1 pIC50” value was “++ (pIC50 5.00-5.99)”.

In the case of `Clc1ccc(-c2nc3ccc(-c4ccccc4)cn3c2CN2CCOCC2)cc1Cl` [Compound 206], the “GLUT1 pIC50” value is reported as “++ (pIC50 5.00-5.99)”.

For `Cc1ccc(-c2nc3ccc(-c4ccccc4)cn3c2CN2CCN(C(=O)c3cccs3)CC2)cc1` [Compound 67], the “GLUT1 pIC50” value was “+++ (pIC50 ≧ 6.00)”.
